Experiment: xn = mol fraction of the nth substance listed
Details: Liquid; for mass density: isochoric method; for viscosity: Capillary tube (Ostwald / Ubbelohde) method

CCCCCCCC [octane] + CCCCCCC
Details	mass density [kg/m3]	viscosity [mPa·s]
447.3 K, 4808 kPa, x2 = 0.5427	566	–
447.3 K, 6304 kPa, x2 = 0.5427	569.6	–
447.3 K, 9463 kPa, x2 = 0.5427	576.6	–
451.28 K, 3900 kPa, x2 = 0.2808	565.6	–
451.28 K, 5302 kPa, x2 = 0.2808	569	–
451.28 K, 8131 kPa, x2 = 0.2808	576	–
451.28 K, 9621 kPa, x2 = 0.2808	579.7	–
452.73 K, 5000 kPa, x2 = 0.5427	–	0.129
452.73 K, 10000 kPa, x2 = 0.5427	–	0.14
455.3 K, 5000 kPa, x2 = 0.7906	–	0.12
455.3 K, 10000 kPa, x2 = 0.7906	–	0.132
455.63 K, 5000 kPa, x2 = 0.2808	–	0.133
455.63 K, 10000 kPa, x2 = 0.2808	–	0.145
463.18 K, 5000 kPa, x2 = 0.5427	–	0.12
463.18 K, 10000 kPa, x2 = 0.5427	–	0.131
466.55 K, 4570 kPa, x2 = 0.7906	535.1	–
466.55 K, 7593 kPa, x2 = 0.7906	546.3	–
466.55 K, 9885 kPa, x2 = 0.7906	553.4	–
466.78 K, 3177 kPa, x2 = 0.5427	538.3	–
466.78 K, 8649 kPa, x2 = 0.5427	556.8	–
466.78 K, 9963 kPa, x2 = 0.5427	560.6	–
472.52 K, 5000 kPa, x2 = 0.7906	–	0.107
472.52 K, 10000 kPa, x2 = 0.7906	–	0.118
473.1 K, 5000 kPa, x2 = 0.5427	–	0.112
473.1 K, 10000 kPa, x2 = 0.5427	–	0.123
473.46 K, 5000 kPa, x2 = 0.2808	–	0.118
473.46 K, 10000 kPa, x2 = 0.2808	–	0.13
475.85 K, 4354 kPa, x2 = 0.2808	539.5	–
475.85 K, 8492 kPa, x2 = 0.2808	553.8	–
475.85 K, 10120 kPa, x2 = 0.2808	558.1	–
483.92 K, 4703 kPa, x2 = 0.5427	524.2	–
483.92 K, 7131 kPa, x2 = 0.5427	533.5	–
483.92 K, 9423 kPa, x2 = 0.5427	541.6	–
494.74 K, 4250 kPa, x2 = 0.2808	515.8	–
494.74 K, 6032 kPa, x2 = 0.2808	524.3	–
494.74 K, 8734 kPa, x2 = 0.2808	535.5	–
494.74 K, 9220 kPa, x2 = 0.2808	537.5	–
505.34 K, 5217 kPa, x2 = 0.2808	507.7	–
505.34 K, 8904 kPa, x2 = 0.2808	525.4	–
505.34 K, 9807 kPa, x2 = 0.2808	528.4	–
506 K, 5099 kPa, x2 = 0.7906	487.7	–
506 K, 6982 kPa, x2 = 0.7906	499.4	–
506 K, 8492 kPa, x2 = 0.7906	507.2	–
506 K, 9669 kPa, x2 = 0.7906	512.6	–
518.04 K, 4982 kPa, x2 = 0.5427	480.1	–
518.04 K, 7512 kPa, x2 = 0.5427	496.2	–
518.04 K, 8983 kPa, x2 = 0.5427	504.3	–
525.5 K, 4771 kPa, x2 = 0.2808	475.8	–
525.5 K, 5323 kPa, x2 = 0.2808	480.4	–
525.5 K, 7331 kPa, x2 = 0.2808	494.9	–
525.5 K, 9533 kPa, x2 = 0.2808	506.5	–
536.57 K, 5021 kPa, x2 = 0.5427	449.5	–
536.57 K, 6931 kPa, x2 = 0.5427	468.1	–
536.57 K, 9621 kPa, x2 = 0.5427	486.1	–
549.34 K, 5394 kPa, x2 = 0.5427	431.7	–
549.34 K, 6766 kPa, x2 = 0.5427	449.2	–
549.34 K, 8689 kPa, x2 = 0.5427	464.6	–
549.34 K, 9708 kPa, x2 = 0.5427	471.9	–
555.9 K, 4982 kPa, x2 = 0.7906	394.1	–
555.9 K, 6198 kPa, x2 = 0.7906	416.1	–
555.9 K, 8649 kPa, x2 = 0.7906	445.5	–
555.9 K, 10240 kPa, x2 = 0.7906	458.1	–
557.23 K, 5296 kPa, x2 = 0.2808	430.4	–
557.23 K, 8238 kPa, x2 = 0.2808	461.5	–
557.23 K, 9885 kPa, x2 = 0.2808	473.3	–
557.23 K, 10790 kPa, x2 = 0.2808	479	–

Reference: the NIST ThermoML archive (doi:10.1016/j.jct.2006.01.012)
